Among the data in PMC4558116, “Inhibition of COP9-signalosome (CSN) deneddylating activity and tumor growth of diffuse large B-cell lymphomas by doxycycline” (Oncotarget, 2015) are IC50 values, retold here.

The target of the assay is T1, CSN5 (COP-9 signalosome deneddylase subunit) (Homo sapiens, UniProt Q92905).
T1 construct: gene COPS5; purified CSN complex; with COP9 signalosome (CSN) complex; substrate Nedd8-conjugated SCF^Skp2 (Cullin-1)
Description: fluorescence polarization deneddylation assay with purified CSN and Oregon Green-Nedd8-SCF^Skp2. It is filed as biochemical. In general terms: In fluorescence polarisation assays a small probe gives low polarisation when free and higher when bound to something large.

T1 sequence (Q92905 2-334): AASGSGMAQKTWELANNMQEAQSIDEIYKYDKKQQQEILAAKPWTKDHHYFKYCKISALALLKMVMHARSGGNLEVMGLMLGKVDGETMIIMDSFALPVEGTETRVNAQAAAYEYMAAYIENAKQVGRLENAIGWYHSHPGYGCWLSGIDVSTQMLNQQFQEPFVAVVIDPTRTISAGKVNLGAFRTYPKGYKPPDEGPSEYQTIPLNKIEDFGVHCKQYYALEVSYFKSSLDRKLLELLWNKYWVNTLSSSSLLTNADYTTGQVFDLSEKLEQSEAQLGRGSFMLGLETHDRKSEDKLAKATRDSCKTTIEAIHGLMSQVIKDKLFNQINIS

Regarding `C[C@H]1c2cccc(O)c2C(=O)C2=C(O)[C@]3(O)C(=O)C(C(N)=O)=C(O)[C@@H](N(C)C)[C@@H]3[C@@H](O)[C@@H]21` [doxycycline], the IC50 (in general, the concentration needed to halve the response being measured) was about 110 µM.
